Where “and” joins values, the source holds several entries; their conditions need not be identical. Equal values may be shown once.
Columns and labels:
[1] = test system: Staphylococcus epidermidis strains; test: Antibiotic susceptibility, disk diffusion method on Mueller-Hinton agar; format: cell-based; details: all 10 Staphylococcus epidermidis strains
J774 cells [2] = test: TNF-α, IFN-γ, IL-10 mRNA expression in J774 cells (real time PCR); format: cell-based, mouse; details: gentamicin 5 μg/ml, ASA 5 μg/ml or MIX (RJI-C 9 μg/ml + TB-KK 6 μg/ml) for 3 hours; Figure 3B
[3] = test system: Staphylococcus epidermidis strains; test: Antibacterial activity of AMPs (MIC100) and synergism (FIC index); format: cell-based; details: against Staphylococcus epidermidis strains, single agent
Procedure: (§1) Antibacterial activity of the peptides used in this work was evaluated as described previously. […] The fractional inhibitory concentration (FIC) index for combinations of two peptides was calculated according to the equation: FIC index = […] = A/MICA + B/MICB , where A and B are the MICs of drug A and drug B in the combination, MICA and MICB are the MICs of drug A and drug B alone, and FICA and FICB are the FICs of drug A and drug B. The FIC indices were interpreted as follows: ≤0.5, synergy; 0.51-4.0, no interaction; > 4.0, antagonism.

[4] = test system: probiotics bacteria (Lactobacillus plantarum, Lactobacillus Paracasei, Bifidobacterium animalis); test: Antibacterial activity against probiotics bacteria, overall statement; format: cell-based; details: MIX RJI-C 9 μg/ml + TB-KK 6 μg/ml; gentamicin 5 μg/ml
Procedure: The growth inhibition percentages of Staphylococcus epidermidis and probiotic strains were assessed under the same conditions.

[5] = test system: Staphylococcus epidermidis (SE); details: mouse, in vivo, iv
[6] = test system: SAA, haptoglobin, fibrinogen; test: Acute phase proteins in blood of infected mice; format: in vivo, mouse
CD64 = details: mouse, in vivo
COX-2 = details: mouse, in vivo
[7] = test system: Staphylococcus epidermidis (SE); details: mouse, in vivo, iv; remark: listed apart in the source
[8] = test system: Staphylococcus epidermidis strains; test: % inhibition of bacterial growth by the MIX and its components; format: cell-based; details: MIX = both
Procedure: as §1, with “antagonism. The growth inhibition percentages of Staphylococcus epidermidis and probiotic strains were assessed under the same conditions.” for “antagonism.”

J774 cells [9] = test: Nitrite (NO2-) formation in J774 cells, Griess reaction; format: cell-based, mouse

Cc1ncc([N+](=O)[O-])n1CCO [M80, metronidazole]
antibiotic resistance pattern, all strains [1]: resistant

bacitracin [B2]
antibiotic resistance pattern, all strains [1]: resistant

C[C@H]1[C@H](NC(=O)/C(=N\OC(C)(C)C(=O)O)c2csc(N)n2)C(=O)N1S(=O)(=O)O [ATM30, aztreonam]
antibiotic resistance pattern, all strains [1]: resistant

C[C@@H](O)[C@H]1C(=O)N2C(C(=O)O)=C(SCCN=CN)C[C@H]12 [IPM10, imipenem]
antibiotic resistance pattern, all strains [1]: sensitive

CC(=O)Oc1ccccc1C(=O)O [ASA, acetylsalicylic acid]
induction of inflammation (TNF-α, IFN-γ, IL-10 mRNA) in J774 cells without LPS (J774 cells [2]): do not induce inflammation

Cc1onc(-c2ccccc2Cl)c1C(=O)N[C@@H]1C(=O)N2[C@@H]1SC(C)(C)[C@@H]2C(=O)O [CX1, cloxacillin]
antibiotic resistance pattern, all strains [1]: resistant

CNC(C)C1CCC(N)C(OC2C(N)CC(N)C(OC3OCC(C)(O)C(NC)C3O)C2O)O1 (stereo not drawn) [Gentamicin, gentamicin]
MIC ([3]; 10^5 CFU/well): 5 µg/mL | MIC ([3]; value in brackets): 10 µM | antibacterial activity against probiotics bacteria, in words [4]: killed the totality of the probiotics tested | induction of inflammation (TNF-α, IFN-γ, IL-10 mRNA) in J774 cells without LPS (J774 cells [2]): do not induce inflammation | bacterial load of kidneys and spleens [5]: decreased | SAA ([6]; 3h after treatment, blood of mice infected with Staphylococcus epidermidis, naive 6±0.8, control 17±0.6): 20 ± 0.8 mg/dL | SAA ([6]; 6h after treatment, control 19.1±0.5): 18.4 ± 1.2 mg/dL | Haptoglobin ([6]; 6h after treatment, control 329±55.2): 264 ± 58.3 mg/dL | SAA ([6]; 9h after treatment, control 21.7±0.9): 16 ± 0.7 mg/dL | Fibrinogen ([6]; mouse, in vivo): 340 ± 41.0 mg/dL and 385 ± 45.2 mg/dL and 364 ± 12.6 mg/dL | Haptoglobin ([6]; mouse, in vivo): 244 ± 42.5 mg/dL and 278 ± 42.9 mg/dL | SAA, haptoglobin and fibrinogen, in words ([6]; mouse, in vivo): within normal ranges | expression of the CD64 marker in blood (CD64): decreased expression of the CD64 marker | COX-2 expression level in kidney (COX-2): COX-2 expression level returned to the normal level nine hours after the treatment | infection status of kidneys and spleens eleven days after the infection [7]: still infected

PFKIDIHLGGY-NH2 [RJI-C, analogue of the royal jellein I, chemically modified at the C terminal]
MIC100 ([3]; 10^5 CFU/well): 30 µg/mL | MIC ([3]; value in brackets): 24 µM | % inhibition of bacterial growth ([8]; strain 2/2, RJI-C 9 μg/ml, TB-KK 6 μg/ml): 18 ± 1% | % inhibition of bacterial growth ([8]; strain 3/28, RJI-C 9 μg/ml (7.3 μM), TB-KK 6 μg/ml (2.6 μM)): 17 ± 2% | % inhibition of bacterial growth ([8]; strain 5/6, RJI-C 9 μg/ml, TB-KK 6 μg/ml): 4 ± 3% | % inhibition of bacterial growth ([8]; strain 5/8, RJI-C 9 μg/ml, TB-KK 6 μg/ml): 12 ± 2% | % inhibition of bacterial growth ([8]; strain 5/25, RJI-C 9 μg/ml, TB-KK 6 μg/ml): 15 ± 1% | % inhibition of bacterial growth ([8]; strain 9/1, RJI-C 9 μg/ml, TB-KK 6 μg/ml): 18 ± 0% | % inhibition of bacterial growth ([8]; strain 10/28, RJI-C 9 μg/ml, TB-KK 6 μg/ml): 0% | % inhibition of bacterial growth ([8]; strain 12/14, RJI-C 9 μg/ml, TB-KK 6 μg/ml): 11 ± 0.5% | % inhibition of bacterial growth ([8]; strain 12/26, RJI-C 9 μg/ml, TB-KK 6 μg/ml): 19 ± 2% | NO2- synthesis in LPS-stimulated J774 cells, in words (J774 cells [9]): reduced NO2^- synthesis
